This is an account of results in patent publication US8865222B2, “Beta-casein assemblies for enrichment of food and beverages and methods of preparation thereof” (Technion Research and Development Foundation Ltd., priority 2008, dated 2014).

Common to all, as to format: physicochemical
The nature of data set [1]: Visual comparison of vitamin D solubilization, clarity and precipitation with and without beta-casein.
Data set [2] is described as follows: Turbidity (solution absorbance at 600 nm). To be noted: vitamin D 82.5 μg/ml, in the absence of beta-casein, pH 7.0 and 2.5.
Data set [3] is described as follows: Vitamin D stability in aqueous solution, n-hexane extraction and Reversed Phase HPLC. To be noted: pH 7 and pH 2.5, room temperature. The method, then: We further tested the stability of vitamin D:beta-casein solutions in both acidic and neutral pH environments. The solutions prepared were left for a week at room temperature and the sampling was made once a day (in the first three days of the experiment) and once every two days (toward the end of the experiment). Vitamin D was extracted by n-hexane from each sample and its amount was analyzed using Reversed Phase HPLC. The amount of the vitamin left was compared to the amount extracted at time 0. The experiment was performed at two different pH values (pH 7 and pH 2.5).

The structures appear in SMILES notation.

Consider `C=C1CC[C@H](O)C/C1=C/C=C1\CCC[C@]2(C)[C@@H]([C@H](C)/C=C/[C@H](C)C(C)C)CC[C@@H]12` [vitamin D, ergocalciferol], for which the precipitation result in data set [1] (PBS, in the absence of beta-casein, after a week) is recorded as “not observed”; in data set [1] (PBS, in the presence of beta-casein, after a week) it was “not observed”; in data set [1] (lactic acid buffer pH 2.5 with beta-casein 0.5% wt, molar ratio 2:1, after a week), “not observed”. In addition, the “aggregation out of solution” value in data set [1] (lactic acid buffer pH 2.5, no beta-casein, after a week) is listed as “white precipitation”. Besides, the turbidity entry in data set [2] is recorded as “sudden increase in turbidity value”. For the same molecule, the “vitamin D stability (amount left versus time 0)” value in data set [3] (in the presence of beta-casein, one week) was “degradation process is much slower”; in data set [3] (vitamin D alone, aqueous solution), “degrades rapidly leaving almost no trace after only two days”.
